Where two headings read alike, the source gives them in different places.
Key:
human DGKζ = target: T1, human DGKζ (Homo sapiens, UniProt Q13574); experiment: DGKζ LIPGLO assay (extruded liposome substrate), in vitro DGK inhibition; type: biochemical; details: read-out: DGKz LIPGLO IC50
T1 construct: TVMV protease cleavage site (C); Hexa-His (C); made in house; host or cells: Sf9 insect cells (baculovirus, Bac-to-Bac)

Human venous whole blood = experiment: Human whole blood IFN-γ assay; type: cell-based; details: human whole blood, read-out: INFg Whole Blood Normalized Agonist EC50;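 also: blood from healthy donors exposed to compound for 1 h before stimulation with anti-CD3 and anti-CD28 at 1 µg/mL each, IFN-γ quantified in supernatant by AlphaLISA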
human DGKα = target: T2, human DGKα (Homo sapiens, UniProt P23743); experiment: DGKα LIPGLO assay (extruded liposome substrate), in vitro DGK inhibition; type: biochemical
T2 construct: TVMV protease cleavage site (C); Hexa-His (C); made in house; host or cells: Sf9 insect cells (baculovirus, Bac-to-Bac)
T2 sequence (P23743 with tags, fused parts or gaps): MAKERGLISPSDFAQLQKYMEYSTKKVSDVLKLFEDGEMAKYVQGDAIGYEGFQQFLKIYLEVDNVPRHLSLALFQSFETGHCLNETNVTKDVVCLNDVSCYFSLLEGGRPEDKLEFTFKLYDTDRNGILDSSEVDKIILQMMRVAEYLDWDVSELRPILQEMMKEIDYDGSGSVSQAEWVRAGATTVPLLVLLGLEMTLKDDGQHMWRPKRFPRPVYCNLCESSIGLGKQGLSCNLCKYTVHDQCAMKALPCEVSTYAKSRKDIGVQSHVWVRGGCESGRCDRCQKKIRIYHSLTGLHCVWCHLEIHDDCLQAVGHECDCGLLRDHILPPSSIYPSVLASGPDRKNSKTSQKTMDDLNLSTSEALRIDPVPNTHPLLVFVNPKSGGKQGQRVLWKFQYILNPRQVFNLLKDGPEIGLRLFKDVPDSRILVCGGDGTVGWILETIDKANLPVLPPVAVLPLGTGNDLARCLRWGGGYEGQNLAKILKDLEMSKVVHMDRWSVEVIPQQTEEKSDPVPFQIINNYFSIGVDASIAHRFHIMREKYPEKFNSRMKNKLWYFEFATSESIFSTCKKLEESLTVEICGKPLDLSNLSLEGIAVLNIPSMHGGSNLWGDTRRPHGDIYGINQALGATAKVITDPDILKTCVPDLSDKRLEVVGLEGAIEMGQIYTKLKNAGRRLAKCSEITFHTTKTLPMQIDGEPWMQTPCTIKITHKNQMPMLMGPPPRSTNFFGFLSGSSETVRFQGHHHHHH

[1] = anti-CD3 plus anti-CD28, 24 hours, 3 μM reference compound = 100% activation
[2] = DGKα liposome (LIPGLO) assay, read-out: DGKa LIPGLO IC50
[3] = Homo sapiens, 24 h, normalized to 3 μM reference compound with anti-CD3 plus anti-CD28 as 100% activation
[4] = liposome (LIPGLO) assay, read-out: DGKa LIPGLO IC50
[5] = normalized to 3 μM reference compound with anti-CD3 plus anti-CD28 as 100% activation
[6] = Homo sapiens, 24 h, anti-CD3 plus anti-CD28, 24 hours, 3 μM reference compound = 100% activation

T1 sequence (Q13574 with tags, fused parts or gaps isoform Q13574-4): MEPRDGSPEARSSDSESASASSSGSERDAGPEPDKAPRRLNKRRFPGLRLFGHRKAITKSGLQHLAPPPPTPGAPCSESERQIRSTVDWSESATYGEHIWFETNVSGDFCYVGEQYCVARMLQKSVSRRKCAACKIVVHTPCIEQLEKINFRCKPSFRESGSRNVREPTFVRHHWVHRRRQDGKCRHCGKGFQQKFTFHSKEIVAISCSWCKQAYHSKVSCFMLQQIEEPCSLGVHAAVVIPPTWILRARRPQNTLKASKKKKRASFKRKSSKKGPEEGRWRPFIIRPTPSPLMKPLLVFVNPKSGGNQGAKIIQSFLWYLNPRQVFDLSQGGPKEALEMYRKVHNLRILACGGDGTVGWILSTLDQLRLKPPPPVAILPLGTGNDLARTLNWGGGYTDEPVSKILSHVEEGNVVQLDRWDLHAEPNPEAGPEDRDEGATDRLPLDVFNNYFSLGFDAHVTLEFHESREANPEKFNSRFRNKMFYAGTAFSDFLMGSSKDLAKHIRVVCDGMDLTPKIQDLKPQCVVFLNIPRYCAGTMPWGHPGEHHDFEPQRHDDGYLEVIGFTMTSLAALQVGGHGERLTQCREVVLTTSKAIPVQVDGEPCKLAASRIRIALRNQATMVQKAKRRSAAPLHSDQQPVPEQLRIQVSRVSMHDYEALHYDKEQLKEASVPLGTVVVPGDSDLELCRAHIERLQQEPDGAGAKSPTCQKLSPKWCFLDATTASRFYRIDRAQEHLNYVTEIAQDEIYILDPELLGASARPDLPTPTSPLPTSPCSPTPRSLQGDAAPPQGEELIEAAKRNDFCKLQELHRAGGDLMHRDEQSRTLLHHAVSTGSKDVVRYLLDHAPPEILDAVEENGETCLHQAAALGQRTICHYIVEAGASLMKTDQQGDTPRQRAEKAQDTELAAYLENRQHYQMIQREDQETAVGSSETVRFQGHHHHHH

| SMILES | IC50 (human DGKζ; DGKζ liposome (LIPGLO) assay) | IC50 (human DGKα; [2]) | IC50 (human DGKζ; liposome (LIPGLO) assay) | IC50 (human DGKα; [4]) | EC50 (Human venous whole blood; [5]) | also measured |
| --- | --- | --- | --- | --- | --- | --- |
| COC(=O)c1cccc(C(C)N2C[C@H](C)N(c3c(C#N)c(=O)n(C)c4ccc(C#N)nc34)C[C@H]2C)c1 (single isomer, unassigned) [Example 796] | 2200 nM | 240000 nM |  |  |  | EC50 (Human venous whole blood; [1]): 20000 nM |
| C[C@@H]1CN(c2cc(=O)n(C)c3ccc(C#N)nc23)[C@@H](C)CN1Cc1ccc(OC(F)(F)F)cc1 [Example 609] |  |  | 13000 nM | 21 nM |  | EC50 (Human venous whole blood; [3]): 2200 nM |
| CC[C@H]1CN(C(C)c2ccc(C3CC3)cc2)[C@H](CC)CN1c1cc(=O)n(C)c2ccc(C#N)nc12 (single isomer, unassigned) [Example 1356] |  |  | 3400 nM | 1900 nM | 1300 nM |  |
| C[C@@H]1CN(c2c(C#N)c(=O)n(C)c3ccc(C#N)nc23)CCN1C(c1ccc(F)cc1)c1cocn1 (stereo partly drawn) [Example 1022] | 12000 nM | 2900 nM |  |  |  | EC50 (Human venous whole blood; [6]): 2500 nM |
| C[C@@H]1CN(c2cc(=O)n(C)c3ccc(C#N)nc23)[C@@H](C)CN1Cc1ccc(OC(F)(F)F)c(C#N)c1 [Example 584] |  |  | 7900 nM | 5900 nM |  | EC50 (Human venous whole blood; [3]): 3400 nM |
| CC(c1ccc(Cl)cc1)N1C[C@H](C)N(c2c(C#N)c(=O)n(C)c3ccc(C#N)nc23)C[C@H]1C (single isomer, unassigned) [Example 792] | 83000 nM |  |  |  |  | EC50 (Human venous whole blood; [1]): 21000 nM; IC50 (human DGKα; DGKa LIPGLO IC50, DGKα liposome (LIPGLO) assay): 1500 nM |
| C[C@@H]1CN(c2c(C#N)c(=O)n(C)c3ccc(C#N)nc23)CCN1C(c1ccc(F)cc1)c1cccc(C(F)(F)F)n1 (single isomer, unassigned) [Example 921] | 3100 nM | 23000 nM |  |  |  | EC50 (Human venous whole blood; [1]): 1500 nM |
| CC(c1ccc(OC(F)(F)F)cc1)N1C[C@H](C)N(c2cc(=O)n(C)c3ccc(C#N)nc23)C[C@H]1CN1CCOCC1 (single isomer, unassigned) [Example 1416] |  |  | 52000 nM | 48000 nM | 20000 nM |  |
| CC[C@H]1CN(C(C)c2ccc(OC(F)(F)F)cc2F)[C@H](CC)CN1c1cc(=O)n(C)c2ccc(C#N)nc12 (single isomer, unassigned) [Example 1372] |  |  | 1700 nM | 460 nM | 1400 nM |  |
| Cc1cccc(C(c2ccc(F)cc2)N2CCN(c3c(C#N)c(=O)n(C)c4ccc(C#N)nc34)C[C@H]2C)n1 (single isomer, unassigned) [Example 905] | 1200 nM | 4600 nM |  |  |  | EC50 (Human venous whole blood; [6]): 1300 nM |
| CC[C@@H]1CN(c2c(F)c(=O)n(C)c3ccc(C#N)nc23)[C@@H](C)CN1C(C)c1ccc(OC(F)(F)F)cc1 (single isomer, unassigned) [Example 1328] |  |  | 1500 nM | 4900 nM |  | EC50 (Human venous whole blood; [3]): 3400 nM |
| C[C@@H]1CN(c2c(C#N)c(=O)n(C)c3ccc(C#N)nc23)[C@@H](C)CN1C(c1ccccc1)c1ccc(Cl)cc1 (stereo partly drawn) [Example 835] | 11000 nM | 11000 nM |  |  |  | EC50 (Human venous whole blood; [1]): 20000 nM |
| CC(c1c(F)cccc1F)N1CCN(c2c(C#N)c(=O)n(C)c3ccc(C#N)nc23)C[C@H]1C (single isomer, unassigned) [Example 951] | 9800 nM | 3700 nM |  |  |  | EC50 (Human venous whole blood; [1]): 20000 nM |
| CC[C@H]1CN(C(c2ccc(F)cc2)c2ccc(C#N)cc2)[C@H](COC)CN1c1cc(=O)n(C)c2ccc(C#N)nc12 (single isomer, unassigned) [Example 1171] |  |  | 350 nM | 1500 nM | 170 nM |  |
| Cc1ccc(C(c2ccc(C)cc2)N2CCN(c3c(C#N)c(=O)n(C)c4ccc(C#N)nc34)C[C@H]2C)cc1 [Example 870] | 310 nM | 2500 nM |  |  |  | EC50 (Human venous whole blood; [6]): 1400 nM |
| C[C@@H]1CN(c2c(C#N)c(=O)n(C)c3ccc(C#N)nc23)[C@@H](C)CN1C(c1ccc(Cl)cc1)c1ccc(Cl)cc1 [Example 805] | 1700 nM | 11000 nM |  |  |  | EC50 (Human venous whole blood; [6]): 9800 nM |
| CCC(c1cc(OC(F)(F)F)ccc1F)N1C[C@H](CC)N(c2cc(=O)n(C)c3ccc(C#N)nc23)C[C@H]1C (single isomer, unassigned) [Example 1380] |  |  | 180 nM | 850 nM | 470 nM |  |
| C[C@@H]1CN(c2c(C#N)c(=O)n(C)c3ccc(C#N)nc23)CCN1C(c1ccc(F)cc1)c1cnn(C)c1 (stereo partly drawn) [Example 1017] | 8400 nM | 7200 nM |  |  |  | EC50 (Human venous whole blood; [1]): 3300 nM |

The next lines start with results.

| IC50 (human DGKζ; DGKζ liposome (LIPGLO) assay) | IC50 (human DGKα; [2]) | IC50 (human DGKζ; liposome (LIPGLO) assay) | IC50 (human DGKα; [4]) | SMILES | EC50 (Human venous whole blood; [5]) | also measured |
| --- | --- | --- | --- | --- | --- | --- |
|  |  | 2700 nM | 1600 nM | CC(c1nc(C2CC2)cs1)N1C[C@H](C)N(c2cc(=O)n(C)c3ccc(C#N)nc23)C[C@H]1C (single isomer, unassigned) [Example 646] |  | EC50 (Human venous whole blood; [3]): 6700 nM |
|  |  | 110 nM | 51 nM | CC(c1ccc(C#N)cc1F)N1C[C@H](C)N(c2cc(=O)n(C)c3ccc(C#N)nc23)C[C@H]1C (single isomer, unassigned) [Example 1227] | 670 nM |  |
| 470 nM | 380 nM |  |  | Cc1noc(C(c2ccc(F)cc2)N2C[C@H](C)N(c3cc(=O)n(C)c4ccc(C#N)nc34)C[C@H]2C)n1 (stereo partly drawn) [Example 745] |  | EC50 (Human venous whole blood; [6]): 1100 nM |
|  |  | 18000 nM | 98000 nM | CC(c1cccc2ncccc12)N1C[C@H](C)N(c2cc(=O)n(C)c3ccc(C#N)nc23)C[C@H]1C (single isomer, unassigned) [Example 639] | 20000 nM |  |
| 630 nM | 420 nM |  |  | C[C@@H]1CN(c2c(C#N)c(=O)n(C)c3ccc(C#N)nc23)[C@@H](C)CN1C(c1ccc(F)cc1)c1nc(C2CC2)no1 (single isomer, unassigned) [Example 861] |  | EC50 (Human venous whole blood; [1]): 420 nM |
|  |  | 510 nM | 1700 nM | Cc1ccc(C(c2cccc3c2OCCCO3)N2C[C@H](C)N(c3cc(=O)n(C)c4ccc(C#N)nc34)C[C@H]2C)nc1 (single isomer, unassigned) [Example 469] | 3200 nM |  |
| 44 nM | 63 nM |  |  | C[C@@H]1CN(c2cc(=O)n(C)c3ccc(C#N)nc23)[C@@H](C)CN1C(c1ccc(F)cc1)c1cnc(C2CC2)s1 (single isomer, unassigned) [Example 728] |  | EC50 (Human venous whole blood; [1]): 920 nM |
|  |  | 1300 nM | 4200 nM | CC(c1ccc2c(c1)OC(F)(F)O2)N1C[C@H](C)N(c2cc(=O)n(C)c3ccc(C#N)nc23)C[C@H]1C (single isomer, unassigned) [Example 655] | 6600 nM |  |
|  |  | 3200 nM | 3300 nM | C[C@@H]1CN(c2cc(=O)n(C)c3ccc(C#N)nc23)[C@@H](C)CN1C(c1ccccc1)c1ccc(Cl)cc1 (single isomer, unassigned) [Example 671] | 1200 nM |  |
|  |  | 1000 nM | 230 nM | Cc1ccnc(C(c2ccc(F)cc2)N2C[C@H](C)N(c3cc(=O)n(C)c4ccc(C#N)nc34)C[C@H]2C)c1 (single isomer, unassigned) [Example 456] | 1100 nM |  |
| 1900 nM | 1000 nM |  |  | C[C@@H]1CN(c2c(C#N)c(=O)n(C)c3ccc(C#N)nc23)[C@@H](C)CN1C(c1ccc(F)cc1)c1cscn1 (single isomer, unassigned) [Example 857] |  | EC50 (Human venous whole blood; [6]): 1400 nM |
|  |  | 53 nM | 5300 nM | C[C@@H]1CN(c2cc(=O)n(C)c3ccc(C#N)nc23)[C@@H](C)CN1C(c1ccc(F)cc1)c1ccnc(C(C)(C)C)n1 (single isomer, unassigned) [Example 409] | 430 nM |  |
|  |  | 3400 nM | 3600 nM | Cc1cc(C(C)N2C[C@H](C)N(c3cc(=O)n(C)c4ccc(C#N)nc34)C[C@H]2C)no1 (single isomer, unassigned) [Example 649] |  | EC50 (Human venous whole blood; [3]): 20000 nM |
|  |  | 110 nM | 1100 nM | C[C@@H]1CN(c2cc(=O)n(C)c3ccc(C#N)nc23)[C@@H](C)CN1C(c1ccc(Cl)cc1)c1ccc(F)c2c1OC(C)(C)C2 (single isomer, unassigned) [Example 458] |  | EC50 (Human venous whole blood; [3]): 510 nM |
|  |  | 680 nM | 720 nM | CC(c1ccc(C2CC2)cc1)N1C[C@H](C)N(c2cc(=O)n(C)c3ccc(C#N)nc23)C[C@H]1C (single isomer, unassigned) [Example 1215] | 7200 nM |  |
| 6600 nM | 440 nM |  |  | C[C@@H]1CN(c2cc(=O)n(C)c3ccc(C#N)nc23)[C@@H](C)CN1C(c1ccc(F)cc1)c1nnc(C2CC2)[nH]1 (single isomer, unassigned) [Example 767] |  | EC50 (Human venous whole blood; [1]): 2300 nM |
| 6200 nM | 2500 nM |  |  | C[C@@H]1CN(c2c(C#N)c(=O)n(C)c3ccc(C#N)nc23)[C@@H](C)CN1C(c1ccc(F)cc1)c1cccc(C(F)(F)F)n1 (single isomer, unassigned) [Example 845] |  | EC50 (Human venous whole blood; [1]): 1500 nM |
|  |  | 1800 nM | 190 nM | C[C@@H]1CN(c2cc(=O)n(C)c3ccc(C#N)nc23)[C@@H](C)CN1C(c1ccc(OC(F)(F)F)cc1)c1ccc(F)cn1 (single isomer, unassigned) [Example 466] | 5500 nM |  |
|  |  | 37000 nM | 290 nM | [2H]C(C)(c1ccc(F)cc1)N1C[C@H](C)N(c2c(F)c(=O)n(C)c3ccc(C#N)nc23)C[C@H]1C (single isomer, unassigned) [Example 424] | 16000 nM |  |
|  |  | 180 nM | 73 nM | CC[C@H]1CN(C(c2ccc(F)cc2)c2ccc(C(F)(F)F)cn2)[C@H](C)CN1c1cc(=O)n(C)c2ccc(C#N)nc12 (single isomer, unassigned) [Example 1131] | 430 nM |  |

Source: patent US10669272B2, “Substituted naphthyridinone compounds useful as T cell activators” (BRISTOL-MYERS SQUIBB COMPANY, priority 2018, dated 2020)
